One experiment has as its system DoHH2. Briefly: CellTiter-Glo proliferation/viability assay. The format is cell-based, human. The following applies: Homo sapiens, DOHH-2. Background: ATP-based viability assays read luminescence as a measure of living cells.
A further experiment deals with Ramos. Briefly: CellTiter-Glo proliferation/viability assay. Type of experiment: cell-based, human. As to conditions: Homo sapiens, Ramos, read-out: Ramos EC50.
Experiment [1] concerns the target T1, Src (Homo sapiens (Human), UniProt P12931). As to conditions: read-out: Src IC50.
The target of experiment [2] is T2, Lyn (Homo sapiens (Human), UniProt P07948). As to conditions: read-out: Lyn IC50.
For another experiment, the system named is DoHH2 cells. As to conditions: treated 24 hours.
The target of the next experiment is BTK (Homo sapiens (Human), UniProt Q06187).
The target of experiment [3] is T1, Src. Briefly: biochemical.
In experiment [4] the target is T2, Lyn. Description: biochemical.
Experiment [5] concerns PLCγ2 phosphorylation in Ramos cells. Briefly: PLCγ2 phosphorylation by flow cytometry. Type of experiment: cell-based, human. As to conditions: Homo sapiens, flow cytometry, anti-phospho PLCγ2 (Tyr1217), four concentrations, read-out: Inhibition of phosphorylation of PLC-γ2 EC50. The procedure: Ramos cells were cultured in RPMI 1640 media with 10% FBS and were starved overnight (18 h) in 1% FBS containing media and on the next day pretreated with inhibitor for 2 h before stimulation. Cells were stimulated to induce BTK network dependent signal transduction pathways using mouse anti-human IgM (final concentration 10 ug/ml; Invitrogen) antibodies and 3.3 mM H2O2 mixture for 2 minutes followed by F(Ab) fragment that cross-linked the anti-IgM antibody (final concentration 10 ug/ml), and 3.3 mM H2O2 for 8 minutes. Cell lysates were prepared in lysis buffer containing protease and phosphatase inhibitors, quantified using the BCA protein assay kit (Pierce) and used for Western blotting. Antibodies specifically targeted to the molecules of interest, PLCγ2 phosphorylated at Tyr1217 and total PLCγ2, (Cell Signaling Technology) were used in a standard Western blotting procedure.
PLCγ2 phosphorylation was also assessed by flow cytometry. Cells were similarly stimulated and following stimulation, Cytofix buffer (Becton Dickinson) was added, cells were centrifuged and the cell pellets incubated on ice with Phosflow perm buffer III (Becton Dickinson). These cell pellets were washed with Perm/Wash buffer (Becton Dickinson); resuspended and labeled for flow cytometry analysis in a staining mixture containing Perm/Wash buffer and PE-labeled anti-phosphoPCLγa2 (Tyr1217) antibody (Becton Dickinson). The samples were washed with Perm/Wash buffer and analyzed on a FACS Calibur flow cytometer using CellQuest Pro software. As mentioned for the Western blot experiments, phosphorylation of PLCγ2 at Tyr1217 along with Tyr753, Tyr759 and Tyr1197 is correlated with increased PLCγ2 activity. The readout for BTK network signaling was inhibition of phosphorylation of PLCγ2. Cells were gated to exclude dead or dying cells. Fluorescence signals from the antibody staining were plotted in logarithmic units and data was analyzed using Cellquest Pro software. […] An ED50 was calculated based on the geometric mean of fluorescence intensity observed for treatment for four different concentrations of the inhibitors (see Table 7 and FIG. 6). […] Thus treatment with amino naphthyridinones inhibits PLCγ2 phosphorylation consistent with inhibition of BTK and/or LYN activity.
Following stimulation, cells were prepared for analysis by flow cytometry as described above. In short, cells were fixed and permeabilized using Cytofix buffer, Phosflow perm buffer and Perm/Wash buffer (Becton Dickinson). The cells were stained with PE-labeled anti-phosphoPCLγ2 (Tyr759) antibody (Becton Dickinson) and analyzed on a FACS Calibur flow cytometer using CellQuest Pro software. […] Thus aminonaphthyridinones are useful for the indirect inhibition of PLCγ2 phosphorylation.
Background: In flow cytometry, cells or beads pass a laser one at a time.

The mark [6] stands for this setting: Table 4, DoHH2 cells, read-out: EC50 (Proliferation).

Where two headings read alike, the source gives them in different places.

T1 sequence (P12931 whole entry, looked up): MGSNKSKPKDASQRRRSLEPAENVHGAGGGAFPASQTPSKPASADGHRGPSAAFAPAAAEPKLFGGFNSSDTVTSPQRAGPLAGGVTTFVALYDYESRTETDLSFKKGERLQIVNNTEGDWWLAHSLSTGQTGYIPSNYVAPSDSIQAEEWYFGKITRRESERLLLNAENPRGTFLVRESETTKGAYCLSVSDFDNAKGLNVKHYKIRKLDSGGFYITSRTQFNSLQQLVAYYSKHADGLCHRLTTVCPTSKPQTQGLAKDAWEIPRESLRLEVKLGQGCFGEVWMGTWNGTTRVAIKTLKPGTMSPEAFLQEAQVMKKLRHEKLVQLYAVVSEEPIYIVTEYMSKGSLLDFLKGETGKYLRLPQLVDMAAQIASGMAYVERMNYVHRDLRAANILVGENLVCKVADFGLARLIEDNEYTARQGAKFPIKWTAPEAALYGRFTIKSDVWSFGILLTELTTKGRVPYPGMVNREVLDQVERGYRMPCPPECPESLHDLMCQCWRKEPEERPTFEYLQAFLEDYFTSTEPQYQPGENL
Sequence of BTK (Q06187 whole entry): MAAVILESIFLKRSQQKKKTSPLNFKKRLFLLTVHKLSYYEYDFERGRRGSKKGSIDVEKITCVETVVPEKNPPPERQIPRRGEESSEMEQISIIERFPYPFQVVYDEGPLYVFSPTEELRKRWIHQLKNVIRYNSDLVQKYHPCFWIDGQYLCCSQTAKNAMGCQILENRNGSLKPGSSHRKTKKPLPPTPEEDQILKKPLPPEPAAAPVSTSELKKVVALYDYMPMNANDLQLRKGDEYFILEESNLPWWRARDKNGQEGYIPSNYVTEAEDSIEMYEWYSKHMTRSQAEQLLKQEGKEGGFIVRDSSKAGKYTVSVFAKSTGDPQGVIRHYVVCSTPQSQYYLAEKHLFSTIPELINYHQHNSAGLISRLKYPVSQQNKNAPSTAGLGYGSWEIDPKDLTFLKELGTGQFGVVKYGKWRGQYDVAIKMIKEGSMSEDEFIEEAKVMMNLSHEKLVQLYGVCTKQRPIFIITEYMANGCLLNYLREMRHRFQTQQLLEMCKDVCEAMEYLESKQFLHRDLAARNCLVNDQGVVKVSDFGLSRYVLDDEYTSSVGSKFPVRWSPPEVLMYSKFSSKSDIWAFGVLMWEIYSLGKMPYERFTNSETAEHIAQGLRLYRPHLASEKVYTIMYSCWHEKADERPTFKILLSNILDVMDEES
T2 sequence (P07948 whole entry): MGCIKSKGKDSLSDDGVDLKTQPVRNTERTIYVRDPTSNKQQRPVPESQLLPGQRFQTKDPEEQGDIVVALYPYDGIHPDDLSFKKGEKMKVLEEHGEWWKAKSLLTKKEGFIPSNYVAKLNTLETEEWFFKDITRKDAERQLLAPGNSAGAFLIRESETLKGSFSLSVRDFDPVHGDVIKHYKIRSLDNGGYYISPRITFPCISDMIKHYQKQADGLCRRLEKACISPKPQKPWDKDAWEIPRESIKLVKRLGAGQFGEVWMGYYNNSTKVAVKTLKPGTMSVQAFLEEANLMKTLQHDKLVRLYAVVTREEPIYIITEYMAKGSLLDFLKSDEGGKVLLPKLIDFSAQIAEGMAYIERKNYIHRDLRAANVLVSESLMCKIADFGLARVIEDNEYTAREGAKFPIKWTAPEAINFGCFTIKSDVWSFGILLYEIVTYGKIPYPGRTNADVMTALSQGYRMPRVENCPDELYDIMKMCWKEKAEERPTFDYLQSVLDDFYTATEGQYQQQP

For `CCn1c(=O)c(C(C)(C)O)cc2cnc(Nc3ccc(C)cn3)cc21` [Compound 69], the EC50 is above 10000 nM with DoHH2 (48 hrs, read-out: DoHH2 EC50); above 10000 nM with DoHH2 (setting [6]); above 10000 nM in the experiment with Ramos (48 hrs). In addition, the values for the IC50 at Src [1], on Lyn [2] and on BTK (read-out: BTK IC50) were below 100 nM, above 5000 nM and above 5000 nM, respectively. Moreover, the “Effect on Cell Cycle” value in the experiment on DoHH2 cells is “No Arrest”.
As for `CCn1c(=O)c(-c2ccccc2)cc2cnc(Nc3ccc(F)cn3)cc21` [Compound 28, 1-Ethyl-7-(5-fluoro-pyridin-2-ylamino)-3-phenyl-1H-[1,6]naphthyridin-2-one], the EC50 with DoHH2 (48 hrs, read-out: DoHH2 EC50) lay in the range of 1000 to 10000 nM; in the experiment on DoHH2 (setting [6]), 1000 to 10000 nM; in the experiment on Ramos (48 hrs), 1000 to 10000 nM. Besides, the IC50 on Src [1], at Lyn [2] and on BTK (read-out: BTK IC50) was above 5000 nM in each case. In the experiment with DoHH2 cells, the “Effect on Cell Cycle” value is reported as “No Arrest”.
As for `CN1CCC(n2c(=O)c(-c3c(F)cccc3F)cc3cnc(Nc4ccc(F)cn4)cc32)CC1` [Compound 79, 3-(2,6-difluorophenyl)-7-((5-fluoropyridin-2-yl)amino)-1-(1-methylpiperidin-4-yl)-1,6-naphthyridin-2(1H)-one], the EC50 with DoHH2 (48 hrs, read-out: DoHH2 EC50) was below 1000 nM; in the experiment on DoHH2 (setting [6]), below 1000 nM; in the experiment with Ramos (48 hrs) it was 1000 to 10000 nM. Also, the IC50 was 2580 nM at Src [1] and below 100 nM on Lyn [2]. Also, the “Effect on Cell Cycle” value in the experiment with DoHH2 cells was “G1 Arrest”.
`CCn1c(=O)c(I)cc2cnc(Nc3ccc(C)cn3)cc21` [Compound 89]: the EC50 was below 1000 nM in the experiment with DoHH2 (48 hrs, read-out: DoHH2 EC50); below 1000 nM with DoHH2 (setting [6]); below 1000 nM in the experiment on Ramos (48 hrs). For the same molecule, the IC50 at Src [1], on Lyn [2] and on BTK (read-out: BTK IC50) was above 5000 nM in each case. The “Effect on Cell Cycle” value in the experiment with DoHH2 cells was “G1 Arrest”.
Regarding `CCN(CC)CCOc1ccc(Nc2cc3c(cn2)cc(C(C)C)c(=O)n3-c2ccccc2)nc1` [Compound 18, 7-[5-(2-Diethylamino-ethoxy)-pyridin-2-ylamino]-3-isopropyl-1-phenyl-1H-[1,6]naphthyridin-2-one], the EC50 in the experiment with DoHH2 (48 hrs, read-out: DoHH2 EC50) was below 1000 nM; with DoHH2 (setting [6]), below 1000 nM; in the experiment on Ramos (48 h), above 10000 nM. Besides, the IC50 on Lyn [2], at Src [3] and at Lyn [4] was 100 to 1000 nM in each case.
Take `CCn1c(=O)c(-c2ccccc2C)cc2cnc(Nc3ccc(C)cn3)cc21` [Compound 45, 1-ethyl-7-(5-methylpyr—idin-2-ylamino)-3-o-tolyl-1,6-naphthyridin-2(1H)-one]: the EC50 is above 10000 nM with DoHH2 (48 hrs, read-out: DoHH2 EC50) and above 10000 nM in the experiment with Ramos (48 h). The IC50 at Lyn [2], at Src [3], on Lyn [4], against BTK and at BTK (read-out: BTK IC50) was 100 to 1000 nM in each case.
On to `O=c1c(-c2c(F)cccc2F)cc2cnc(Nc3ccc(F)cn3)cc2n1C1CCOC1` (stereo not shown) [Compound 83, 3-(2,6-difluorophenyl)-7-((5-fluoropyridin-2-yl)amino)-1-(tetrahydrofuran-3-yl)-1,6-naphthyridin-2(1H)-one], for which the EC50 in the experiment on DoHH2 (48 hrs, read-out: DoHH2 EC50) was below 1000 nM; in the experiment with Ramos (48 h), 1000 to 10000 nM; in [5], 450 nM. Further, the IC50 at Src [1] and at Lyn [2] was below 100 nM in each case.
Regarding `CCn1c(=O)c(-c2ccccc2)cc2cnc(Nc3ccc(NCCO)cn3)cc21` [Compound 66, 1-Ethyl-7-[5-(2-hydroxy-ethylamino)-pyridin-2-ylamino]-3-phenyl-1H-[1,6]naphthyridin-2-one], the EC50 was below 1000 nM in the experiment with DoHH2 (48 hrs, read-out: DoHH2 EC50); below 1000 nM in the experiment on DoHH2 (setting [6]); 1000 to 10000 nM in the experiment on Ramos (48 h). Besides, the IC50 at Src [1] is below 100 nM; on Lyn [2], below 100 nM; at BTK it was 100 to 1000 nM. The “Effect on Cell Cycle” value with DoHH2 cells is reported as “G1 Arrest”.
Regarding `O=c1c(-c2c(F)cccc2F)cc2cnc(Nc3ccc(F)cn3)cc2n1C1CCCC1` [Compound 77, 1-cyclopentyl-3-(2,6-difluorophenyl)-7-((5-fluoropyridin-2-yl)amino)-1,6-naphthyridin-2(1H)-one], the EC50 in the experiment with DoHH2 (48 hrs, read-out: DoHH2 EC50) is below 1000 nM; in the experiment with DoHH2 (setting [6]) it was below 1000 nM; in the experiment on Ramos (48 hrs), above 10000 nM. Also, the IC50 on Src [1] and on Lyn [2] was below 100 nM each time. For the same molecule, the “Effect on Cell Cycle” value in the experiment with DoHH2 cells is “G1 Arrest”.
As for `CCN(CC)CCOc1ccc(Nc2cc3c(cn2)cc(C(C)C)c(=O)n3C2CCC2)nc1` [Compound 47, 1-Cyclobutyl-7-[5-(2-diethylamino-ethoxy)-pyridin-2-ylamino]-3-isopropyl-1H-[1,6]naphthyridin-2-one], the “Effect on Cell Cycle” value in the experiment with DoHH2 cells is “G1 Arrest”.
On to `CCn1c(=O)c(-c2ccccc2)cc2cnc(Nc3cn(CCOC)cn3)cc21` [Compound 114, 1-ethyl-7-((1-(2-methoxyethyl)-1H-imidazol-4-yl)amino)-3-phenyl-1,6-naphthyridin-2(1H)-one], for which the EC50 in the experiment with DoHH2 (48 hrs, read-out: DoHH2 EC50) was 1000 to 10000 nM; in the experiment with Ramos (48 h) it was above 10000 nM. The figures for the IC50 against Src [3], against Lyn [4] and at BTK (read-out: BTK IC50) were 100 to 1000 nM, 1000 to 5000 nM and below 100 nM, respectively.
Take `CCN(CC)CCOc1ccc(Nc2cc3c(cn2)cc(-c2c(Cl)cccc2Cl)c(=O)n3C2CCOC2)nc1` (single isomer, unassigned) [Compound 145, (S or R)-3-(2,6-dichlorophenyl)-7-((5-(2-(diethylamino)ethoxy)pyridin-2-yl)amino)-1-(tetrahydrofuran-3-yl)-1,6-naphthyridin-2(1H)-one]: the EC50 is below 1000 nM in the experiment on DoHH2 (48 hrs, read-out: DoHH2 EC50) and 1000 to 10000 nM in the experiment on Ramos (48 h). The concentration for half-maximal inhibition (IC50) against Src [3], at Lyn [4] (Lyn IC50) and on BTK was below 100 nM in each case.
Turning to `CCn1c(=O)c(-c2ccccc2)cc2cnc(Nc3ccncn3)cc21` [Compound 60, 1-Ethyl-3-phenyl-7-(pyrimidin-4-ylamino)-1H-[1,6]naphthyridin-2-one], the EC50 in the experiment with DoHH2 (48 hrs, read-out: DoHH2 EC50) is 1000 to 10000 nM; in the experiment with Ramos (48 h), above 10000 nM. The values for the IC50 against Src [3], on Lyn [4] and on BTK were 100 to 1000 nM, 1000 to 5000 nM and 100 to 1000 nM, respectively.
Regarding `COCCn1c(=O)c(C(C)C)cc2cnc(Nc3ccc(F)cn3)cc21` [Compound 128, 7-((5-fluoropyridin-2-yl)amino)-3-isopropyl-1-(2-methoxyethyl)-1,6-naphthyridin-2(1H)-one], the EC50 with DoHH2 (48 hrs, read-out: DoHH2 EC50) is 1000 to 10000 nM; with Ramos (48 hrs) it was above 10000 nM. The IC50 on Src [3], against Lyn [4] and against BTK was 1000 to 5000 nM in each case.
In the case of `CCn1c(=O)c(-c2cc([S+](C)[O-])ccc2F)cc2cnc(Nc3ccc(N(C)C4CCN(C)CC4)cn3)cc21` (stereo not shown) [Compound 117, 1-ethyl-3-(2-fluoro-5-(methylsulfinyl)phenyl)-7-((5-(methyl(1-methylpiperidin-4-yl)amino)pyridin-2-yl)amino)-1,6-naphthyridin-2(1H)-one], the EC50 was 1000 to 10000 nM in the experiment with DoHH2 (48 hrs, read-out: DoHH2 EC50) and above 10000 nM in the experiment with Ramos (48 h). The IC50 was 100 to 1000 nM against Src [3], below 100 nM on Lyn [4] and 100 to 1000 nM against BTK.
`CCn1c(=O)c(-c2ccccc2)cc2cnc(Nc3ccc(CN4CCN(S(C)(=O)=O)CC4)cn3)cc21` [Compound 111, 1-ethyl-7-((5-((4-(methylsulfonyl)piperazin-1-yl)methyl)pyridin-2-yl)amino)-3-phenyl-1,6-naphthyridin-2(1H)-one]: the EC50 in the experiment on DoHH2 (48 hrs, read-out: DoHH2 EC50) was below 1000 nM; with Ramos (48 hrs), 1000 to 10000 nM. In addition, the IC50 on Src [3] is 100 to 1000 nM; on Lyn [4], 100 to 1000 nM; at BTK (read-out: BTK IC50), below 100 nM.
Consider `O=c1c(-c2c(F)cccc2F)cc2cnc(Nc3ccc(F)cn3)cc2n1CCO` [Compound 125, 3-(2,6-difluorophenyl)-7-((5-fluoropyridin-2-yl)amino)-1-(2-hydroxyethyl)-1,6-naphthyridin-2(1H)-one], for which the EC50 in the experiment with DoHH2 (48 hrs, read-out: DoHH2 EC50) is below 1000 nM; in the experiment on Ramos (48 h) it was above 10000 nM. Besides, the IC50 against Src [3], against Lyn [4] and on BTK was 100 to 1000 nM each time.

The term IC50 denotes the concentration that inhibits the measured activity by half.

For the origin of these results see patent publication US9714247B2, “Multiple kinase pathway inhibitors” (Mannkind Corporation, priority 2012, dated 2017).
